# According to patent publication US9572827B2, “Pharmaceutical composition for treating depression and method for preparation thereof” (Beijing Wonner Biotech, Ltd. Co., priority 2005, dated 2017):
# Experiments:
# ICR mice [1] = experiment: Mouse tail-hanging experiment; format: in vivo; conditions: 16.7 mg/kg, fed into the stomach 2 times per day for 7 days; 1 hour after last administration; last 5 of 6 minutes
# Protocol: Experiment 1: “Mouse Tail-Hanging” Experiment Experimental animal: ICR mice Experimental pharmaceuticals: The pharmaceutical of the Embodiment 3 of the present invention is provided by Beijing Wonner Biotech Ltd. Co., the depression-relieving pill is the product of Zhengzhou Yumi Medicines Co. Ltd., and Paroxitine (Paxil) is the product of Zhong Mei Tianjin Smith Kline pharmaceuticals Co. Ltd. I. Group division: 1. Large dose of the Embodiment 3 medicine of the present invention (188.5 mg/kg), 2. middle dose of the Embodiment 3 medicine of the present invention (94.25 mg/kg), 3. small dose of the Embodiment 3 medicine of the present invention (47.125 mg/kg), 4. depression-reliving pill (650 mg/kg), 5. Paroxitine (16.7 mg/kg), and 6. physiological saline. (Ten (10) mice are in each group.) II. Administration of drug: The abovementioned pharmaceutical water solutions are fed into the stomach according to 0.2 ml/10 g body weight, 2 times per day for a total of 7 days. After 1 hour of the last administration of drug, the mouse tail-hanging experiment is proceeded. III. […] The time of non-movement of the mouse for the last 5 minutes is recorded. The variance analysis calculation and the p-value compared with the control of the experimental result are calculated by using SPSS 11.5 analytic software.
# ICR mice [2] = experiment: Body temperature decrease experiment induced by resetpine; format: in vivo; conditions: 16.7 mg/kg, 2 times per day for 7 days
# Source text: Experiment 2: Body Temperature Decrease Experiment Induced by Resetpine
# Experimental animal: ICR mice
# Experimental pharmaceuticals: The pharmaceutical of the Embodiment 3 of the present invention is provided by Beijing Wonner Biotech Ltd. Co., the depression-relieving pill is the product of Zhengzhou Yumi Medicines Co. Ltd., and Paroxitine (Paxil) is the product of Zhong Mei Tianjin Smith Kline pharmaceuticals Co. Ltd.
# I. Group division: 1. Large dose of the Embodiment 3 medicine of the present invention (188.5 mg/kg), 2. middle dose of the Embodiment 3 medicine of the present invention (94.25 mg/kg), 3. small dose of the Embodiment 3 medicine of the present invention (47.125 mg/kg), 4. depression-reliving pill (650 mg/kg), 5. Paroxitine (16.7 mg/kg), and 6. physiological saline. (Ten (10) mice are in each group.)
# II. Administration of drug: the abovementioned pharmaceutical water solutions are fed into the stomach according to 0.2 ml/10 g body weight, 2 times per day for a total of 7 days.
# III. After the last administration of drug, the anal temperature (abbreviated as anal temp.) is determined, and then 2 mg resetpine per kg of the body weight is taken by intraperitoneal injection. After injecting the resetpine for 2, 3, 4, 5, 6 and 7 hours respectively, the anal temperature of the mice are determined.
# The variance analysis calculation and the p-value compared with the control of the experimental result are calculated by using SPSS 11.5 analytic software.
smiles,measurement,setting,value
Fc1ccc([C@@H]2CCNC[C@H]2COc2ccc3c(c2)OCO3)cc1 [Paroxitine],Time of non-movement,ICR mice [1],54.98 ± 46.92 s
same,Decreased anal temp. for 2 hr,ICR mice [2]; 2 hr after resetpine 2 mg/kg i.p.,1.29 ± 0.47 °C
same,Decreased anal temp. for 3 hr,ICR mice [2]; 3 hr after resetpine 2 mg/kg i.p.,1.08 ± 0.35 °C
same,Decreased anal temp. for 4 hr,ICR mice [2]; 4 hr after resetpine 2 mg/kg i.p.,1.55 ± 0.64 °C
same,Decreased anal temp. for 5 hr,ICR mice [2]; 5 hr after resetpine 2 mg/kg i.p.,1.44 ± 0.32 °C
same,Decreased anal temp. for 6 hr,ICR mice [2]; 6 hr after resetpine 2 mg/kg i.p.,2.51 ± 0.47 °C
same,Decreased anal temp. for 7 hr,ICR mice [2]; 7 hr after resetpine 2 mg/kg i.p.,2.76 ± 0.59 °C
